Test results from patent US8163921B2, “Hepatitis C virus inhibitors” (Bristol-Myers Squibb Company, priority 2008, dated 2012).
Like-named read-outs stand apart in the source and are kept apart here.

How the values were obtained:
[1] = system: HCV replicon in HUH-7 cells; test: HCV replicon FRET assay; assay type: cell-based, HCV strain 1b; conditions: Hepatitis C virus
From the text: An HCV replicon whole cell system was established as described by Lohmann V, Korner F, Koch J, Herian U, Theilmann L, Bartenschlager R., Science 285(5424):110-3 (1999). This system enabled us to evaluate the effects of our HCV Protease compounds on HCV RNA replication. Briefly, using the HCV strain 1b sequence described in the Lohmann paper (Assession number:AJ238799), an HCV cDNA was synthesized by Operon Technologies, Inc. (Alameda, Calif.), and the full-length replicon was then assembled in plasmid pGem9zf(+) (Promega, Madison, Wis.) using standard molecular biology techniques. The replicon consists of (i) the HCV 5′ UTR fused to the first 12 amino acids of the capsid protein, (ii) the neomycin phosphotransferase gene (neo), (iii) the IRES from encephalomyocarditis virus (EMCV), and (iv) HCV NS3 to NS5B genes and the HCV 3′ UTR. Plasmid DNAs were linearized with ScaI and RNA transcripts were synthesized in vitro using the T7 MegaScript transcription kit (Ambion, Austin, Tex.) according to manufacturer's directions. In vitro transcripts of the eDNA were transfected into the human hepatoma cell line, HUH-7. […] Resulting cell lines were characterized for positive and negative strand RNA production and protein production over time.
The HCV replicon FRET assay was developed to monitor the inhibitory effects of compounds described in the disclosure on HCV viral replication. HUH-7 cells, constitutively expressing the HCV replicon, were grown in Dulbecco's Modified Eagle Media (DMEM) (Gibco-BRL) containing 10% Fetal calf serum (FCS) (Sigma) and 1 mg/ml G418 (Gibco-BRL). Cells were seeded the night before (1.5×10^4 cells/well) in 96-well tissue-culture sterile plates. Compound and no compound controls were prepared in DMEM containing 4% FCS, 1:100 Penicillin/Streptomysin (Gibco-BRL), 1:100 L-glutamine and 5% DMSO in the dilution plate (0.5% DMSO final concentration in the assay). Compound/DMSO mixes were added to the cells and incubated for 4 days at 37° C. After 4 days, cells were first assessed for cytotoxicity using alamar Blue (Trek Diagnotstic Systems) for a CC50 reading. The toxicity of compound (CC50) was determined by adding 1/10th volume of alamar Blue to the media incubating the cells. After 4 h, the fluorescence signal from each well was read, with an excitation wavelength at 530 nm and an emission wavelength of 580 nm, using the Cytofluor Series 4000 (Perspective Biosystems). Plates were then rinsed thoroughly with Phosphate-Buffered Saline (PBS) (3 times 150 μl).

[2] = biological target: T1, HCV NS3/4A protease complex, BMS strain (UniProt P27958, C1454S/C1711G, species not given); test: FRET peptide assay to monitor HCV NS3/4A proteolytic activity (BMS strain); assay type: biochemical, HCV genotype 1a; conditions: read-out: IC50 Range, HCV NS3/4A enzyme assay
T1 construct: other: HCV NS3/4A enzyme assay; class symbols; numeric values; fused on or other part: three-lysine solubilising tail at the C-terminus of NS4A; purified on Ni-NTA from the pET21b vector (His tag implied)
Procedure, shortened: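 Recombinant HCV NS3/4A protease complex (BMS strain, genotype 1a), 2-3 nM final (300 pM with 50 μg/ml BSA for very potent compounds), incubated with RET S1 EDANS/DABCYL depsipeptide substrate at 2 μM final. Buffer: 50 mM HEPES pH 7.5, 0.15 M NaCl, 0.1% Triton, 15% glycerol, 10 mM βME. Cleavage followed in real time by fluorescence.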

[3] = Huh-7, HCV replicon cell assay, numeric values, read-out: EC50 Range

Structure (SMILES)	EC50 ([1]; Huh-7, read-out: EC50 Range) [nM]	IC50 ([2]; class symbols) [nM]	EC50 [1, 3] [nM]	IC50 ([2]; numeric values) [nM]
C=C[C@@H]1C[C@]1(NC(=O)[C@@H]1C[C@@H](Oc2ncc(OC)c3ccc(Cl)cc23)CN1C(=O)[C@@H](Nc1nc(-c2ccc(C#N)cc2)cs1)C(C)(C)C)C(=O)NS(=O)(=O)C1CC1 [Example 21]	1 to 50	1 to 20	–	–
C=C[C@@H]1C[C@]1(NC(=O)[C@@H]1C[C@@H](Oc2ncc(OC)c3ccc(Cl)cc23)CN1C(=O)[C@@H](Nc1nc(-c2cc(Cl)cc(Cl)c2F)cs1)C(C)(C)C)C(=O)NS(=O)(=O)C1CC1 [Example 53]	–	–	20.3	17
C=C[C@@H]1C[C@]1(NC(=O)[C@@H]1CC(Oc2ncc(OC)c3ccc(Cl)cc23)CN1C(=O)[C@@H](Nc1nc(-c2nc3ccccc3n2C)cs1)C(C)(C)C)C(=O)NS(=O)(=O)C1CC1 (stereo partly shown) [Example 42]	1 to 50	1 to 20	–	–
C=C[C@@H]1C[C@]1(NC(=O)[C@@H]1C[C@@H](Oc2ncc(OC)c3ccc(Cl)cc23)CN1C(=O)[C@@H](Nc1nc(-c2ccccc2F)cs1)C(C)(C)C)C(=O)NS(=O)(=O)C1CC1 [Example 39]	1 to 50	1 to 20	–	–
C=C[C@@H]1C[C@]1(NC(=O)[C@@H]1C[C@@H](Oc2ncc(OC)c3ccc(Cl)cc23)CN1C(=O)[C@@H](Nc1nc(-c2ccc(N(CC)CC)cc2)cs1)C(C)(C)C)C(=O)NS(=O)(=O)C1CC1 [Example 44]	1 to 50	1 to 20	–	–
C=C[C@@H]1C[C@]1(NC(=O)[C@@H]1C[C@@H](Oc2ncc(OC)c3ccc(Cl)cc23)CN1C(=O)[C@@H](Nc1nc(-c2ccc(OC(F)F)cc2)cs1)C(C)(C)C)C(=O)NS(=O)(=O)C1CC1 [Example 8]	1 to 50	1 to 20	–	–
C=C[C@@H]1C[C@]1(NC(=O)[C@@H]1C[C@@H](Oc2ncc(OC)c3ccc(Cl)cc23)CN1C(=O)[C@@H](Nc1nc(-c2ccc(OC)cc2)cs1)C(C)(C)C)C(=O)NS(=O)(=O)C1CC1 [Example 7]	1 to 50	1 to 20	–	–
C=C[C@@H]1C[C@]1(NC(=O)[C@@H]1C[C@@H](Oc2ncc(OC)c3ccc(Cl)cc23)CN1C(=O)[C@@H](Nc1nc(-c2cc(-c3ccccc3)no2)cs1)C(C)(C)C)C(=O)NS(=O)(=O)C1CC1 [Example 85]	1 to 50	1 to 20	–	–
C=C[C@@H]1C[C@]1(NC(=O)[C@@H]1C[C@@H](Oc2cc(-c3ccccc3)nc3cc(OC)ccc23)CN1C(=O)[C@@H](Nc1nc(-c2cccc(OC)c2)cs1)C(C)(C)C)C(=O)NS(=O)(=O)C1CC1 [Example 3]	1 to 50	1 to 20	–	–
C=C[C@@H]1C[C@]1(NC(=O)[C@@H]1C[C@@H](Oc2ncc(OC)c3ccc(Cl)cc23)CN1C(=O)[C@@H](Nc1nc(-c2ccccc2O)cs1)C(C)(C)C)C(=O)NS(=O)(=O)C1CC1 [Example 50]	–	–	18.9	39
C=C[C@@H]1C[C@]1(NC(=O)[C@@H]1C[C@@H](Oc2ncc(OC)c3ccc(Cl)cc23)CN1C(=O)[C@@H](Nc1nc(-c2ccc3c(c2)OCCO3)cs1)C(C)(C)C)C(=O)NS(=O)(=O)C1CC1 [Example 36]	1 to 50	1 to 20	–	–
C=C[C@@H]1C[C@]1(NC(=O)[C@@H]1C[C@@H](Oc2ncc(OC)c3ccc(Cl)cc23)CN1C(=O)[C@@H](Nc1nc(-c2ccc(Cl)cc2)cs1)C(C)(C)C)C(=O)NS(=O)(=O)C1CC1 [Example 38]	1 to 50	1 to 20	–	–
C=C[C@@H]1C[C@]1(NC(=O)[C@@H]1C[C@@H](Oc2ncc(OC)c3ccc(Cl)cc23)CN1C(=O)[C@@H](Nc1nc(-c2ccc(OC(F)(F)F)cc2)cs1)C(C)(C)C)C(=O)NS(=O)(=O)C1CC1 [Example 17]	–	–	8.95	11
C=C[C@@H]1C[C@]1(NC(=O)[C@@H]1C[C@@H](Oc2ncc(OC)c3ccc(Cl)cc23)CN1C(=O)[C@@H](Nc1nc(-c2ccc(-c3ccccc3)cc2)cs1)C(C)(C)C)C(=O)NS(=O)(=O)C1CC1 [Example 24]	1 to 50	20 to 200	–	–
C=C[C@@H]1C[C@]1(NC(=O)[C@@H]1C[C@@H](Oc2ncc(OC)c3ccc(Cl)cc23)CN1C(=O)[C@@H](Nc1nc(-c2ccccc2OC)cs1)C(C)(C)C)C(=O)NS(=O)(=O)C1CC1 [Example 33]	–	–	6.84	9
COc1cnc(O[C@@H]2C[C@@H](C(=O)N[C@]3(C(=O)NS(=O)(=O)C4CC4)C[C@H]3CC(F)F)N(C(=O)[C@@H](Nc3nc(-c4ccc(Oc5ccccc5)cc4)cs3)C(C)(C)C)C2)c2cc(Cl)ccc12 [Example 99]	50 to 200	20 to 200	–	–
C=C[C@@H]1C[C@]1(NC(=O)[C@@H]1C[C@@H](Oc2ncc(OC)c3ccc(Cl)cc23)CN1C(=O)[C@@H](Nc1nc(-c2cccc(OC)c2)cs1)C(C)(C)C)C(=O)NS(=O)(=O)C1CC1 [Example 35]	1 to 50	1 to 20	–	–
C=C[C@@H]1C[C@]1(NC(=O)[C@@H]1C[C@@H](Oc2ncc(OC)c3ccc(Cl)cc23)CN1C(=O)[C@@H](Nc1nc(-c2ccc(Cl)cc2Cl)cs1)C(C)(C)C)C(=O)NS(=O)(=O)C1CC1 [Example 37]	1 to 50	20 to 200	–	–
C=C[C@@H]1C[C@]1(NC(=O)[C@@H]1C[C@@H](Oc2ncc(OC)c3ccc(Cl)cc23)CN1C(=O)[C@@H](Nc1nc(-c2ccccc2)c(-c2ccccc2)s1)C(C)(C)C)C(=O)NS(=O)(=O)C1CC1 [Example 45]	1 to 50	1 to 20	–	–
C=C[C@@H]1C[C@]1(NC(=O)[C@@H]1C[C@@H](Oc2ncc(OC)c3ccc(Cl)cc23)CN1C(=O)[C@@H](Nc1nc(-c2ccc3ccccc3c2)cs1)C(C)(C)C)C(=O)NS(=O)(=O)C1CC1 [Example 11]	1 to 50	1 to 20	–	–
C=C[C@@H]1C[C@]1(NC(=O)[C@@H]1C[C@@H](Oc2ncc(OC)c3ccc(Cl)cc23)CN1C(=O)[C@@H](Nc1nc(-c2ccc(N3CCOCC3)cc2)cs1)C(C)(C)C)C(=O)NS(=O)(=O)C1CC1 [Example 41]	1 to 50	1 to 20	–	–
C=C[C@@H]1C[C@]1(NC(=O)[C@@H]1C[C@@H](Oc2ncc(OC)c3ccc(Cl)cc23)CN1C(=O)[C@@H](Nc1nc(-c2ccc(OC)cc2OC)cs1)C(C)(C)C)C(=O)NS(=O)(=O)C1CC1 [Example 28]	1 to 50	1 to 20	–	–
C=C[C@@H]1C[C@]1(NC(=O)[C@@H]1C[C@@H](Oc2ncc(OC)c3ccc(Cl)cc23)CN1C(=O)[C@@H](Nc1nc(-c2cc(F)ccc2OC)cs1)C(C)(C)C)C(=O)NS(=O)(=O)C1CC1 [Example 56]	1 to 50	1 to 20	–	–
C=C[C@@H]1C[C@]1(NC(=O)[C@@H]1C[C@@H](Oc2ncc(OC)c3ccc(Cl)cc23)CN1C(=O)[C@@H](Nc1nc(-c2ccc(OC)cc2)c(CC)s1)C(C)(C)C)C(=O)NS(=O)(=O)C1CC1 [Example 12]	1 to 50	1 to 20	–	–
C=C[C@@H]1C[C@]1(NC(=O)[C@@H]1C[C@@H](Oc2ncc(OC)c3ccc(Cl)cc23)CN1C(=O)[C@@H](Nc1nc(-c2ccc(OC)cc2F)cs1)C(C)(C)C)C(=O)NS(=O)(=O)C1CC1 [Example 51]	1 to 50	1 to 20	–	–
C=C[C@@H]1C[C@]1(NC(=O)[C@@H]1C[C@@H](Oc2ncc(OC)c3ccc(Cl)cc23)CN1C(=O)[C@@H](Nc1nc(-c2ccc(C)cc2C)cs1)C(C)(C)C)C(=O)NS(=O)(=O)C1CC1 [Example 34]	1 to 50	1 to 20	–	–
